Reference: PMC4664966, “Discovery and characterization of novel inhibitors of the sodium-coupled citrate transporter (NaCT or SLC13A5)” (Scientific Reports, 2015)

How the values were obtained:
human hepatocytes [1] = assay: Incorporation of [14C]-citrate into triglycerides by human hepatocytes; assay type: cell-based; details: radiolabeled citrate for 24 hours
Experimental: Incorporation of [^14C]-citrate into triglycerides by human hepatocytes was measured using the same procedure as above except cells were incubated with the radioactive citrate for 24 hours. Subsequently, the media was aspirated and 100 μL of isopropyl alcohol:THF (9:1) was added. The plate was shaken for 15 minutes, centrifuged at 3000 revolutions per minute for 5 minutes, and 50 μL of supernatant from each well was applied per TLC lane (Whatman LK6D Silica Gel Plates). Radiolabeled lipids were resolved using a 2-solvent system: Solvent 1 contained a 100:100:100:40:36 mixture of ethyl acetate:isopropyl alcohol:CHCl3:MeOH:0.25% KCl and Solvent 2 a 70:27:3 hexane:diethyl ether:acetic acid mixture. The TLC plate was dried under nitrogen for 30 minutes and [^14C]-standards added to a vacant lane. Bands were visualized and quantitated using a Molecular Dynamics’ Storm 860 PhosphorImager system following 18–36 hours exposure to a Phosphorimager screen.

Dopamine receptor 2 (D2) = Dopamine receptor 2 (D2) (Homo sapiens, UniProt P14416); assay: Selectivity data (Table S1); assay type: binding
Sequence of Dopamine receptor 2 (D2) (P14416 whole entry): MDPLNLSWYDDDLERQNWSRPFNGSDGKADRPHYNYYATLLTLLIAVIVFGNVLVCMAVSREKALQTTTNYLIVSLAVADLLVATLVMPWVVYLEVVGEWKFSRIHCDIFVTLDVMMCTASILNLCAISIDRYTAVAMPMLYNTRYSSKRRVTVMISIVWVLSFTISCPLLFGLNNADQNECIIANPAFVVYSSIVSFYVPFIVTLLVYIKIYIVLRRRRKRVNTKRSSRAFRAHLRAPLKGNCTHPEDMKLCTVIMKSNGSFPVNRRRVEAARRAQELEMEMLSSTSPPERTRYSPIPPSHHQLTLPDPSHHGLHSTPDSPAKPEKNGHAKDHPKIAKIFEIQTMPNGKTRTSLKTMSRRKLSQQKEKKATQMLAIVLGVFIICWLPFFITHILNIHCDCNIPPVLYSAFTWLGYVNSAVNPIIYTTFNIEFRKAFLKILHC

CYP2C8 = CYP2C8 (Homo sapiens, UniProt P10632); assay: Selectivity data (Table S1); assay type: in vitro ADME; details: 3 µM
[2] = biological target: Cytochrome P450 2C8 (CYP2C8) (Homo sapiens, UniProt P10632); assay: Selectivity data (Table S1); assay type: in vitro ADME
[3] = biological target: Adrenergic receptor, beta-2(ADRB2) (Homo sapiens, UniProt P07550); assay: Selectivity data (Table S1); assay type: binding
Sequence of Adrenergic receptor, beta-2(ADRB2) (P07550 whole entry): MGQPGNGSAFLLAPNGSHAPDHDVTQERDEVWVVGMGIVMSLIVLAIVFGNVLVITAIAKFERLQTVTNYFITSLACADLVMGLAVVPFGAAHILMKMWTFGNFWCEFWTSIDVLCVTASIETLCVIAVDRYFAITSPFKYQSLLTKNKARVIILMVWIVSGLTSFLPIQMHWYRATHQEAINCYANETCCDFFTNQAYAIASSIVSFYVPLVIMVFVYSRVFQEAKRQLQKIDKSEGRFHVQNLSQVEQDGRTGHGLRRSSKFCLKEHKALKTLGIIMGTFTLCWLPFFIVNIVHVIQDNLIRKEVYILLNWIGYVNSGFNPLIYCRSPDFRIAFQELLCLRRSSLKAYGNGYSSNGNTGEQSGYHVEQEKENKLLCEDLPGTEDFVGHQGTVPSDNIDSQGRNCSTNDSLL

CYP2C9 = CYP2C9 (Homo sapiens, UniProt P11712); assay: Selectivity data (Table S1); assay type: in vitro ADME; details: 3 µM
[4] = biological target: Cytochrome P450 2C9 (CYP2C9) (Homo sapiens, UniProt P11712); assay: Selectivity data (Table S1); assay type: in vitro ADME
human hepatocytes [5] = assay: U-[13C]-citrate uptake and incorporation into TCA cycle intermediates in human hepatocytes; assay type: cell-based; details: 500 μM U-[13C]-citrate, 30 μM compound
Experimental: Primary hepatocytes were given the indicated substrates (compound and labeled citrate) under the same conditions used to generate the IC50 curves. Incubations were stopped by rapidly removing culture media and adding 80% methanol pre-cooled in dry ice. Cellular debris was removed by centrifugation and samples dried by Speedvac. Dried cell extracts were then re-dissolved in 100 μL HPLC-grade water. Citrate uptake was analyzed by injecting a 10 μL aliquot of sample onto an Imtakt UK-Phenyl (2.1 mm × 150 mm) column (Imtakt USA, Philadelphia, PA, USA) using a Waters Acquity UPLC system (Waters Corp., Milford, MA, USA) coupled to a Thermo Q-Exactive mass spectrometer (Thermo Corp., San Jose, CA, USA). […] Metabolites were monitored using negative ion electrospray, ESI(-), in full scan mode with a resolution of 70,000 FWHM calibrated to mass accuracy <2 ppm. […] Citrate transport was determined through enrichment of ^13C6-citrate into the intracellular pool of citrate as determined by the percent ^13C6-citrate in the total pool. Fate of citrate carbon through one turn of the TCA cycle was analyzed by comparing percent labeling into the respective pools of ^13C4-fumarate, ^13C4-malate, and ^13C4-glutamate. Thermo LCQuan (Thermo Corp, San Jose, CA, USA) was used to extract out exact mass using a 5 ppm window at the calculated accurate mass for each metabolite and its isotopomer. […]

[6] = biological target: Arginine vasopressin receptor 1A (AVPR1A) (Homo sapiens, UniProt P37288); assay: Selectivity data (Table S1); assay type: binding
Sequence of Arginine vasopressin receptor 1A (AVPR1A) (P37288 whole entry): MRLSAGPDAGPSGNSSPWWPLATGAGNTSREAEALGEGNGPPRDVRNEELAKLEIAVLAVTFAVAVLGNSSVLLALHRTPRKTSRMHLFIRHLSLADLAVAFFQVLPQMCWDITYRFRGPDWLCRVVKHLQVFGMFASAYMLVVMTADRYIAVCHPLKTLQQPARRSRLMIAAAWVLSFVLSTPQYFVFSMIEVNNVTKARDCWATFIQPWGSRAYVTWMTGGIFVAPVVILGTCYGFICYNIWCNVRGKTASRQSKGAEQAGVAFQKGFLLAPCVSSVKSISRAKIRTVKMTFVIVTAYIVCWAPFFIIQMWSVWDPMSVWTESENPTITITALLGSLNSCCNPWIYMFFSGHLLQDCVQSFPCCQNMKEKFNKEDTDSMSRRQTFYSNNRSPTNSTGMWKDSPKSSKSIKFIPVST

[7] = biological target: Neurokinin receptor 1 (NK1) (Homo sapiens, UniProt P25103); assay: Selectivity data (Table S1); assay type: binding
[8] = biological target: Adrenergic receptor, alpha-2A (ADRA2A) (Homo sapiens, UniProt P08913); assay: Selectivity data (Table S1); assay type: binding
Sequence of Adrenergic receptor, alpha-2A (ADRA2A) (P08913 whole entry): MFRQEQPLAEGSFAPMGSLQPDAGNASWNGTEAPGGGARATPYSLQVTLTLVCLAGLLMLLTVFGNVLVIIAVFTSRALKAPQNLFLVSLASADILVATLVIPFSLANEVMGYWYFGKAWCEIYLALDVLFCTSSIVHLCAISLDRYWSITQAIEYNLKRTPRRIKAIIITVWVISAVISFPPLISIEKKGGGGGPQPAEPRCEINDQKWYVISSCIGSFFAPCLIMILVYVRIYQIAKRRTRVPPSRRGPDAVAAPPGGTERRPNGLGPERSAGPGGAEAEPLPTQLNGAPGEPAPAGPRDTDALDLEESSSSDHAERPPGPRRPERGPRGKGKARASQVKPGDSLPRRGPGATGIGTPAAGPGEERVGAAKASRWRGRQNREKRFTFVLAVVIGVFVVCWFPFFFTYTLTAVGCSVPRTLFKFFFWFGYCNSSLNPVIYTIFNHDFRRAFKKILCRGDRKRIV

[9] = biological target: Acetylcholinesterase (ACHE) (Homo sapiens, UniProt P22303); assay: Selectivity data (Table S1); assay type: biochemical
[10] = biological target: Sodium channel, type V, alpha-subunit (NaV1.5) (Homo sapiens, UniProt Q14524); assay: Selectivity data (Table S1)
Sequence of Sodium channel, type V, alpha-subunit (NaV1.5) (Q14524 whole entry): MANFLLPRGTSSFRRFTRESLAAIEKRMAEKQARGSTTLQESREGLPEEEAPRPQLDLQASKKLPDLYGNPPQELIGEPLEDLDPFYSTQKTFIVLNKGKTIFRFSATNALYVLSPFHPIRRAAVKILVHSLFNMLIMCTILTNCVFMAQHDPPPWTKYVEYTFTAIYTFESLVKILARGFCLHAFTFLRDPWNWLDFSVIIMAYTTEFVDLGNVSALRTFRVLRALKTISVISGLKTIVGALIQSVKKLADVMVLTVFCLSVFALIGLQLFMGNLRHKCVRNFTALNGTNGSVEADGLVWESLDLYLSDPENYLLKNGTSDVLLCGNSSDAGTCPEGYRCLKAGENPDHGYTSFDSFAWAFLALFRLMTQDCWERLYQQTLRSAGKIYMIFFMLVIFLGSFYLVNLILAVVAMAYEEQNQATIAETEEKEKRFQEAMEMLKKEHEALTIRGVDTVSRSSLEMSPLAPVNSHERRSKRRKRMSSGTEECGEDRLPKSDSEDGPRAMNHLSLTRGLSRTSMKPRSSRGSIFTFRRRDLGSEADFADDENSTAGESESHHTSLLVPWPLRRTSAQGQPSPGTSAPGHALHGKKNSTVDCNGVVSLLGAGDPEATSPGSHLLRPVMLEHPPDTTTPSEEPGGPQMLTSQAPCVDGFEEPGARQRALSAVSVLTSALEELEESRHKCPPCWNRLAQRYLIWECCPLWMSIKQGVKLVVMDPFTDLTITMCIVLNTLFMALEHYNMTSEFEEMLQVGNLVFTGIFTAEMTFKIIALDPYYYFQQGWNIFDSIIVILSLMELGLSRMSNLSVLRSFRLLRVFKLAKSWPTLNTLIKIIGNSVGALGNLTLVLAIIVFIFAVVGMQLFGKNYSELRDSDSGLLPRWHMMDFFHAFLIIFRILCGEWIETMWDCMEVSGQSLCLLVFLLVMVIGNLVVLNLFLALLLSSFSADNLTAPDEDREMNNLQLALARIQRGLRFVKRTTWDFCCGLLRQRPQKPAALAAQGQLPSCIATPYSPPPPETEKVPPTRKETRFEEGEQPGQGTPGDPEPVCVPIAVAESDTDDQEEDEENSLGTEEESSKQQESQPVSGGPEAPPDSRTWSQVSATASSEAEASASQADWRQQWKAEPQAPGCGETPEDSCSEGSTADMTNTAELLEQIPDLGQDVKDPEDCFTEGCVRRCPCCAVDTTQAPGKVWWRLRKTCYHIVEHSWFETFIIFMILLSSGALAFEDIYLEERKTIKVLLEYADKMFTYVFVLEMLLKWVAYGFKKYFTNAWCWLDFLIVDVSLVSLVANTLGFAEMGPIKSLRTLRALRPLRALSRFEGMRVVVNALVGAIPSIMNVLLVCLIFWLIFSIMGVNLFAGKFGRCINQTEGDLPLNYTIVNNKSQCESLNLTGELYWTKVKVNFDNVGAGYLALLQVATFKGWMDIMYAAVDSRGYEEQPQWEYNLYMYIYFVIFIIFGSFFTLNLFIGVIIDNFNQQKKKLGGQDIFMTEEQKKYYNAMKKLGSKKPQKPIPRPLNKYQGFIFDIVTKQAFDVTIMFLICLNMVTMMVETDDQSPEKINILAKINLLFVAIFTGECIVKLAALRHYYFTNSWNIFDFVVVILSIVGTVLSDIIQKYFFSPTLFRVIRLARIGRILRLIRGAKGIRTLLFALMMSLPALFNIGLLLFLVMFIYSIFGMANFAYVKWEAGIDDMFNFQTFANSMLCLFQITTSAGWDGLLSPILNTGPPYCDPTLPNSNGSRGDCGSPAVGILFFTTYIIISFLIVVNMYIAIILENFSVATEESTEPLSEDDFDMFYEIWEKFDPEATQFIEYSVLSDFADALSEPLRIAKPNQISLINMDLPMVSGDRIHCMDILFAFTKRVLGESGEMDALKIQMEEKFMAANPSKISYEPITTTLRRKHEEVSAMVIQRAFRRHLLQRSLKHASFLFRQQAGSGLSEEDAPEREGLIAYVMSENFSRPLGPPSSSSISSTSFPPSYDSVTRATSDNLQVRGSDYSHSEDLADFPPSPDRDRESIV

[11] = biological target: Abelson murine leukemia viral oncogene homolog 1 (ABL1) (Homo sapiens, UniProt P00519); assay: Selectivity data (Table S1); assay type: biochemical
Sequence of Abelson murine leukemia viral oncogene homolog 1 (ABL1) (P00519 whole entry): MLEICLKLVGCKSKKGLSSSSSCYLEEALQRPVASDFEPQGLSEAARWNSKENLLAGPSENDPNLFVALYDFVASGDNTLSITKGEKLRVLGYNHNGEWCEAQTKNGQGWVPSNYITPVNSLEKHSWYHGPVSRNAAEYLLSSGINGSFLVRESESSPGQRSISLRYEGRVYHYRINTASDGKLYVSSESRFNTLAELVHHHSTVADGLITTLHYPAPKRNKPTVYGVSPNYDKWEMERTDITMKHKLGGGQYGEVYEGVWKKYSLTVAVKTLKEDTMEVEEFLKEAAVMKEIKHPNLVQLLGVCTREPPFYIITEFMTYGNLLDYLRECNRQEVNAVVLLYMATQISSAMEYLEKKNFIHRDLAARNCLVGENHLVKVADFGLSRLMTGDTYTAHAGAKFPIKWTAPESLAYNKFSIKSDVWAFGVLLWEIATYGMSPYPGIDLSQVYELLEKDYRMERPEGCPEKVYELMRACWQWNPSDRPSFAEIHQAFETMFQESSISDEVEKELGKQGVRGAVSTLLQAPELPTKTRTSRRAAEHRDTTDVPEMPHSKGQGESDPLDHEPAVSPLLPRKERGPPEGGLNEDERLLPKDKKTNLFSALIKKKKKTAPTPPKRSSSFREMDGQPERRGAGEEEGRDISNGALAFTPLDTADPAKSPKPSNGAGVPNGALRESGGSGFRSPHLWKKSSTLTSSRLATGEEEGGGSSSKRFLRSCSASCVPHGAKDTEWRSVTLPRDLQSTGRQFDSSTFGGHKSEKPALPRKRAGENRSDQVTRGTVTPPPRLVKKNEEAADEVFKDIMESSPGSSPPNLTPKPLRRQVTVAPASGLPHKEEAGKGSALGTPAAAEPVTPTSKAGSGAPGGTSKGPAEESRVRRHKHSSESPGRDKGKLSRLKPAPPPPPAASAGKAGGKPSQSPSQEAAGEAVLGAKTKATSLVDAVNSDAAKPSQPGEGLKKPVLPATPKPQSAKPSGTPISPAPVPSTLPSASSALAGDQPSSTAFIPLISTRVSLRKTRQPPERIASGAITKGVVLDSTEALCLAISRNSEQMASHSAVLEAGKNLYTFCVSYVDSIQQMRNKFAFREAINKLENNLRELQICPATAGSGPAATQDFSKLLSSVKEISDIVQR

Calcium channel, L-type = assay: Selectivity data (Table S1)

CC(C)(C)c1ccc(CC[C@@](O)(CC(=O)O)C(=O)O)cc1 [Compound 2]
label incorporation in TAG (human hepatocytes [1]): decreased dose-dependently | inhibition at 100 µM (Dopamine receptor 2 (D2)): < 10% | inhibition at 3 µM (CYP2C8): < 10% | interaction/inhibition of CYP2C8 [2]: no significant interaction/inhibition | inhibition at 100 µM [3]: < 10% | inhibition at 3 µM (CYP2C9): < 10% | interaction/inhibition of CYP2C9 [4]: no significant interaction/inhibition | uniform labeling of citrate, malate, glutamate and fumarate from U-[13C]-citrate (human hepatocytes [5]): reduced | inhibition at 100 µM [6]: < 10% | inhibition at 100 µM [7]: < 10% | inhibition at 100 µM [8]: < 10% | inhibition at 100 µM [9]: < 10% | inhibition at 10 µM [10]: < 10% | inhibition at 100 µM [11]: < 10% | IC50 (Calcium channel, L-type): > 30 µM
